# Patent US5622962A, “5α-reductase inhibitors” (priority 1995, dated 1997)
# Several values for one entry are separate records, joined by “and”; a condition that tells them apart may be missing. Equal entries are not always repeated. Where two headings read alike, the source gives them in different places.
# Legend:
# [1] = target: T1, Type I 5α-Reductase from Human Scalp (Homo sapiens, UniProt P18405); assay: Human Type I 5α-reductase assay (conversion of [3H]-testosterone to 5α-reduced metabolites); type: biochemical
# T1 construct: Scalp punch biopsies from graft recipient sites were obtained from human hair transplant procedures; from tissue; host or cells: human scalp punch biopsies (hair transplant graft recipient sites), homogenate, 100,000×g pellet
# T1 sequence (P18405 1-259): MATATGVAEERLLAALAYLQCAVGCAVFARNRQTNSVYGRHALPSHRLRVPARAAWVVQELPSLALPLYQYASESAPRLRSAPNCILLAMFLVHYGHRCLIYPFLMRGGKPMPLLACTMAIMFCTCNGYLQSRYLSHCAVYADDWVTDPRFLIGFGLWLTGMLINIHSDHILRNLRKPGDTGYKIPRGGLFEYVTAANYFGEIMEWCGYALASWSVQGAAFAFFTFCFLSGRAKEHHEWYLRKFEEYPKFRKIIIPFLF
# [2] = target: T2, Type II 5α-Reductase from Human Prostate (Homo sapiens, UniProt P31213); assay: Human Type II 5α-reductase assay (conversion of [3H]-testosterone to 5α-reduced metabolites); type: biochemical
# T2 construct: The same procedure as above was used for preparations using tissue from prostate surgery; from tissue; host or cells: human prostate tissue from surgery, homogenate, 100,000×g pellet
# T2 sequence (P31213 1-254): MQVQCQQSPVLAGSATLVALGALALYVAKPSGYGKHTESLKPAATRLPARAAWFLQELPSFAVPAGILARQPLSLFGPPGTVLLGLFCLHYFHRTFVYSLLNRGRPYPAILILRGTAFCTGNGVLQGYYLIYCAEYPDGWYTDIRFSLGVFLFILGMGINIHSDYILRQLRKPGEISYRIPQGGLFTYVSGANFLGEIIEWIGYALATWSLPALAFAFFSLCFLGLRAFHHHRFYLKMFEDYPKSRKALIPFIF
# [3] = pH 7.5, 0.3 μM, 50 nM [3H]-testosterone, pH 7.5, 25°, 180 min, compared to control reaction mixtures, read-out: percent inhibition of Type I AR
# [4] = pH 5.5, 0.3 μM, sodium acetate pH 5.5, 25°, 30 min, compared to control reaction mixtures, read-out: percent inhibition of Type II AR
Compound,"inhibition at 0.3 µM [1, 3] [%]","inhibition at 0.3 µM [2, 4] [%]",other results
"CN1C(=O)CC[C@]2(C)c3ccc(-c4ccccc4F)cc3CC[C@@H]12 [Example 38, (+)-(4aR)-(10bR)-4-methyl-8-(2-fluorophenyl)-10b-methyl-1,2,3,4,4a,5,6,10b-octahydrobenzo[f]quinolin-3-one]",84,56,"percent inhibition of Type II AR ([2]; 0.3 μM, sodium acetate pH 5.5, 25°, 30 min, compared to control reaction mixtures): 38%"
"C[C@]12CCC(=O)N[C@@H]1CCc1cc(Sc3cccc(F)c3)ccc12 [Example 16, (+)-(4aR)-(10bR)-8-(3-fluorophenylthio)-10b-methyl-1,2,3,4,4a,5,6,10b-octahydrobenzo[f]quinolin-3-one]",14,28,–
"C[C@]12CCC(=O)N[C@@H]1CCc1cc(Sc3cccc4ccccc34)ccc12 [Example 11, (+)-(4aR)-(10bR)-8-(1-naphthylthio)-10b-methyl-1,2,3,4,4a,5,6,10b-octahydrobenzo[f]quinolin-3-one]",87,40,–
"CN1C(=O)CC[C@]2(C)c3ccc(-c4cc(F)cc(F)c4F)cc3CC[C@@H]12 [Example 130, (+)-(4aR)-(10bR)-4-methyl-8-(2,3,5-trifluorophenyl)-10b-methyl-1,2,3,4,4a,5,6,10b-octahydrobenzo[f]quinolin-3-one]",83,29,–
"CN1C(=O)CC[C@]2(C)c3ccc(Sc4nc(-c5ccccc5)cc5ccccc45)cc3CC[C@@H]12 [Example 177, (+)-(4aR)-(10bR)-4-methyl-8-(3-phenyl-1-isoquinolinylthio)-10b-methyl-1,2,3,4,4a,5,6,10b-octahydrobenzo[f]quinolin-3-one]",58,15,–
"CN1C(=O)CC[C@]2(C)c3ccc(-c4ccc(NC(=O)C(C)(C)C)c5ccccc45)cc3CC[C@@H]12 [Example 32, (+)-(4aR)-(10bR)-4-methyl-8-(1-[4-t-butylcarbonylamino]naphthyl)-10b-methyl-1,2,3,4,4a,5,6,10b-octahydrobenzo[f]-quinolin-3-one]",71,18,–
"CN1C(=O)CC[C@]2(C)c3ccc(-c4ccc5c6c(cccc46)C(=O)N(C4CCN(Cc6ccccc6)CC4)C5=O)cc3CC[C@@H]12 [Example 246, (+)-(4aR)-(10bR)-4-methyl-8-[2-(4-[N-benzyl]piperidinyl)-1H-benzo<de>isoquinolin-6-yl-1,3-(2H)dione]-10b-methyl-1,2,3,4,4a,5,6,10b-octahydrobenzo[f]quinolin-3-one]",92,45,–
"CN1C(=O)CC[C@]2(C)c3ccc(-c4cc5c6c(c4)N(C(=O)c4ccccc4)C[C@@H]6C[C@H](N)C5)cc3CC[C@@H]12 [Example 226, (+)-(4aR)-(10bR)-4-methyl-8-(2aR,4S-1-benzoyl-4-amino-2,2a,3,4-tetrahydrobenz[cd]-1H-indol-7-yl)-10b-methyl-1,2,3,4,4a,5,6,10b-octahydrobenzo[f]quinolin-3-one]",16,8,–
"COc1ccc2cc(-c3ccc4c(c3)CC[C@H]3N(C)C(=O)CC[C@]43C)ccc2c1 [Example 81, (+)-(4aR)-(10bR)-4-methyl-8-(2-[6-methoxy]naphthyl)-10b-methyl-1,2,3,4,4a,5,6,10b-octahydrobenzo[f]quinolin-3-one]",92,25,–
"CN1C(=O)CC[C@]2(C)c3ccc(-c4ccc([N+](=O)[O-])cc4C(F)(F)F)cc3CC[C@@H]12 [Example 133, (+)-(4aR)-(10bR)-4-methyl-8-(4-nitro-2-trifluoromethylphenyl)-10b-methyl-1,2,3,4,4a,5,6,10b-octahydrobenzo[f]-quinolin-3-one]",–,–,"inhibition at 0.3 µM ([1]; pH 7.5, read-out: percent inhibition of Type I AR): 77%; inhibition at 0.3 µM ([2]; pH 5.5, read-out: percent inhibition of Type II AR): 34%"
"CN1C(=O)CC[C@]2(C)c3ccc(Sc4cnc5ccccc5n4)cc3CC[C@@H]12 [Example 153, (+)-(4aR)-(10bR)-4-methyl-8-(2-quinoxalinylthio)-10b-methyl-1,2,3,4,4a,5,6,10b-octahydrobenzo[f]quinolin-3-one]",49,71,–
"C[C@]12CCC(=O)N[C@@H]1CCc1cc(Sc3cnc4ccccc4c3)ccc12 [Example 18, (4aR)-(10bR)-8-(3-quinolinylthio)-10b-methyl-1,2,3,4,4a,5,6,10b-octahydrobenzo[f]quinolin-3-one]",7,15,–
"CN1C(=O)CC[C@]2(C)c3ccc(CCCc4ccccc4)cc3CC[C@@H]12 [Example 275, (+)-(4aR)-(10bR)-4-methyl-8-(3-phenylpropyl)-10b-methyl-1,2,3,4,4a,5,6,10b-octahydrobenzo[f]quinolin-3-one]",75,44,–

# Now from value to compound, other results behind:
"inhibition at 0.3 µM [1, 3] [%]","inhibition at 0.3 µM [2, 4] [%]",Compound,other results
–,41,"CN1C(=O)CC[C@]2(C)c3ccc(-c4cccc5ccccc45)cc3CC[C@@H]12 [Example 53, (+)-(4aR)-(10bR)-4-methyl-8-(1-naphthyl)-10b-methyl-1,2,3,4,4a,5,6,10b-octahydrobenzo[f]quinolin-3-one]","percent inhibition of Type I AR ([1]; 0.3 μM, 50 nM [3H]-testosterone, pH 7.5, 25°, 180 min, compared to control reaction mixtures): 100% and 66%"
72,29,"CC(=O)N1CCc2cc(-c3ccc4c(c3)CC[C@H]3N(C)C(=O)CC[C@]43C)ccc21 [Example 238, (+)-(4aR)-(10bR)-4-methyl-8-(1-acetylindolin-5-yl)-10b-methyl-1,2,3,4,4a,5,6,10b-octahydrobenzo[f]quinolin-3-one]",–
84,19,"CN1C(=O)CC[C@]2(C)c3ccc(Sc4nc5c(C(C)(C)C)ccc(C(C)(C)C)c5s4)cc3CC[C@@H]12 [Example 189, (+)-(4aR)-(10bR)-4-methyl-8-[4,7-di(t-butyl)-2-benzothiazolylthio]-10b-methyl-1,2,3,4,4a,5,6,10b-octahydrobenzo[f]-quinolin-3-one]",–
94,27,"CN1C(=O)CC[C@]2(C)c3ccc(-c4ccc(F)c(F)c4F)cc3CC[C@@H]12 [Example 232, (+)-(4aR)-(10bR)-4-methyl-8-(2,3,4-trifluorophenyl)-10b-methyl-1,2,3,4,4a,5,6,10b-octahydrobenzo[f]quinolin-3-one]",–
79,87,"CN1C(=O)CC[C@]2(C)c3ccc(Sc4nc5c(F)cccc5s4)cc3CC[C@@H]12 [Example 162, (+)-(4aR)-(10bR)-4-methyl-8-(4-fluoro-2-benzothiazolylthio)-10b-methyl-1,2,3,4,4a,5,6,10b-octahydrobenzo[f]quinolin-3-one]",–
92,3,"CN1C(=O)CC[C@]2(C)c3ccc(-c4ccc(Oc5ccccc5)cc4)cc3CC[C@@H]12 [Example 56, (+)-(4aR)-(10bR)-4-methyl-8-(4-phenoxyphenyl)-10b-methyl-1,2,3,4,4a,5,6,10b-octahydrobenzo[f]quinolin-3-one]",–
75,61,"CN1C(=O)CC[C@]2(C)c3ccc(Sc4ccc5c([N+](=O)[O-])cccc5n4)cc3CC[C@@H]12 [Example 169, (+)-(4aR)-(10bR)-4-methyl-8-(5-nitro-2-quinolinylthio)-10b-methyl-1,2,3,4,4a,5,6,10b-octahydrobenzo[f]quinolin-3-one]",–
64,36,"CN1C(=O)CC[C@]2(C)c3ccc(-c4ccccc4C#N)cc3CC[C@@H]12 [Example 125, (+)-(4aR)-(10bR)-4-methyl-8-(2-cyanophenyl)-10b-methyl-1,2,3,4,4a,5,6,10b-octahydrobenzo[f]quinolin-3-one]",–
67,69,"CN1C(=O)CC[C@]2(C)c3ccc(Sc4nc5ccccc5o4)cc3CC[C@@H]12 [Example 150, (+)-(4aR)-(10bR)-4-methyl-8-(2-benzoxazolylthio)-10b-methyl-1,2,3,4,4a,5,6,10b-octahydrobenzo[f]quinolin-3-one]",–
29,19,"C[C@]12CCC(=O)N[C@@H]1CCc1cc(Sc3ccccc3F)ccc12 [Example 17, (+)-(4aR)-(10bR)-8-(2-fluorophenylthio)-10b-methyl-1,2,3,4,4a,5,6,10b-octahydrobenzo[f]quinolin-3-one]",–
25,15,"CN1C(=O)CC[C@]2(C)c3ccc(Sc4ccc5nc6ccccc6c(=O)n5n4)cc3CC[C@@H]12 [Example 176, (+)-(4aR)-(10bR)-4-methyl-8-(10-oxo-10H-2-pyridazino[6,1-b]-quinazolinylthio)-10b-methyl-1,2,3,4,4a,5,6,10b-octahydrobenzo[f]quinolin-3-one]",–
90,35,"Cc1ccccc1-c1ccc2c(c1)CC[C@H]1N(C)C(=O)CC[C@]21C [Example 40, (+)-(4aR)-(10bR)-4-methyl-8-(2-methylphenyl)-10b-methyl-1,2,3,4,4a,5,6,10b-octahydrobenzo[f]quinolin-3-one]",–
